Biological target: T1, human G6PD (glucose-6-phosphate dehydrogenase) (Homo sapiens, UniProt P11413)
T1 construct: functional as dimer or tetramer
Assay: growth rate of humanized E. coli (LEICA), Hill fit
Format: cell-based
Conditions: live E. coli Δpgi Δzwf expressing human G6PD, M9 glucose, 37 °C, 1% DMSO; growth read-out, no effect on E. coli Δpgi

T1 sequence (P11413 2-515): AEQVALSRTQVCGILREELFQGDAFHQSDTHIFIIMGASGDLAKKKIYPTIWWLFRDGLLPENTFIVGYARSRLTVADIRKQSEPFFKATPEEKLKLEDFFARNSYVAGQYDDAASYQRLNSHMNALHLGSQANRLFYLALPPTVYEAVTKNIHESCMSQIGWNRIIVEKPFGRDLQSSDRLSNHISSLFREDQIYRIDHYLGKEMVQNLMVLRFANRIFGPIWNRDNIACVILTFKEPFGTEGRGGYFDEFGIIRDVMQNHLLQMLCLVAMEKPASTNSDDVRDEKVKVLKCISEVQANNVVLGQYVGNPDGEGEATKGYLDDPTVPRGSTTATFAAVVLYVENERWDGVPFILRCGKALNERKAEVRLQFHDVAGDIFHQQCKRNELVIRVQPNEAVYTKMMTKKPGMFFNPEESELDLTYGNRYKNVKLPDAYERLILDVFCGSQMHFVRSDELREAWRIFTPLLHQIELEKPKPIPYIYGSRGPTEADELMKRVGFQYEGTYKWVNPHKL

Structure (SMILES): N#Cc1cc(Nc2ncc3c(n2)CCCCC3=O)cs1 [G6PDi-1]
- IC50: 111 µM
